# How the values were obtained:
# Test in all cases: radiometric filter-binding kinase assay, Kinase HotSpot
# Details in all cases: compound 0.5 µM; ATP 10 µM
# PAK6 (human) = PAK6 (human) (UniProt Q9NQU5)
# PBK (human) = PBK (human) (UniProt Q96KB5)
# PDGFRB (human) = PDGFRB (human) (UniProt P09619)
# PRKCI (human) = PRKCI (human) (UniProt P41743)
# IKBKE (human) = IKBKE (human) (UniProt Q14164)
# PNCK (human) = PNCK (human) (UniProt Q6P2M8)
# MAPK3 (human) = MAPK3 (human) (UniProt P27361)
# PLK1 (human) = PLK1 (human) (UniProt P53350)
# MAP3K9 (human) = MAP3K9 (human) (UniProt P80192)
# EPHB3 (human) = EPHB3 (human) (UniProt P54753)
# PIM2 (human) = PIM2 (human) (UniProt Q9P1W9)
# AKT2 (human) = AKT2 (human) (UniProt P31751)
# MAPK9 (human) = MAPK9 (human) (UniProt P45984)
# ULK2 (human) = ULK2 (human) (UniProt Q8IYT8)
# MAP4K2 (human) = MAP4K2 (human) (UniProt Q12851)
# MINK1 (human) = MINK1 (human) (UniProt Q8N4C8)
# RET (human) = RET (human) (UniProt P07949)
# HIPK2 (human) = HIPK2 (human) (UniProt Q9H2X6)
# CHEK1 (human) = CHEK1 (human) (UniProt O14757)
# MAP3K5 (human) = MAP3K5 (human) (UniProt Q99683)
# MLTK (human) = MLTK (human) (UniProt Q9NYL2)
# FRK (human) = FRK (human) (UniProt P42685)
# TSSK2 (human) = TSSK2 (human) (UniProt Q96PF2)
# HIPK1 (human) = HIPK1 (human) (UniProt Q86Z02)
# EPHA3 (human) = EPHA3 (human) (UniProt P29320)
# RPS6KA2 KD1 KD2 (human) = RPS6KA2 KD1 KD2 (human) (UniProt Q15349)
# TGFBR2 (human) = TGFBR2 (human) (UniProt P37173)
# MAP3K10 (human) = MAP3K10 (human) (UniProt Q02779)
# FGFR3 (human) = FGFR3 (human) (UniProt P22607)
# CSNK1G2 (human) = CSNK1G2 (human) (UniProt P78368)
# TXK (human) = TXK (human) (UniProt P42681)
# EPHB4 (human) = EPHB4 (human) (UniProt P54760)
# PIM1 (human) = PIM1 (human) (UniProt P11309)
# SYK (human) = SYK (human) (UniProt P43405)
# FES (human) = FES (human) (UniProt P07332)
# FLT1 (human) = FLT1 (human) (UniProt P17948)
# PRKCA (human) = PRKCA (human) (UniProt P17252)
# MAPK8 (human) = MAPK8 (human) (UniProt P45983)
# MAPK1 (human) = MAPK1 (human) (UniProt P28482)
# EPHA7 (human) = EPHA7 (human) (UniProt Q15375)
# AKT1 (human) = AKT1 (human) (UniProt P31749)
# PAK7 (human) = PAK7 (human) (UniProt Q9P286)
# Chain of EPHA7 (human) (Q15375 whole entry, looked up): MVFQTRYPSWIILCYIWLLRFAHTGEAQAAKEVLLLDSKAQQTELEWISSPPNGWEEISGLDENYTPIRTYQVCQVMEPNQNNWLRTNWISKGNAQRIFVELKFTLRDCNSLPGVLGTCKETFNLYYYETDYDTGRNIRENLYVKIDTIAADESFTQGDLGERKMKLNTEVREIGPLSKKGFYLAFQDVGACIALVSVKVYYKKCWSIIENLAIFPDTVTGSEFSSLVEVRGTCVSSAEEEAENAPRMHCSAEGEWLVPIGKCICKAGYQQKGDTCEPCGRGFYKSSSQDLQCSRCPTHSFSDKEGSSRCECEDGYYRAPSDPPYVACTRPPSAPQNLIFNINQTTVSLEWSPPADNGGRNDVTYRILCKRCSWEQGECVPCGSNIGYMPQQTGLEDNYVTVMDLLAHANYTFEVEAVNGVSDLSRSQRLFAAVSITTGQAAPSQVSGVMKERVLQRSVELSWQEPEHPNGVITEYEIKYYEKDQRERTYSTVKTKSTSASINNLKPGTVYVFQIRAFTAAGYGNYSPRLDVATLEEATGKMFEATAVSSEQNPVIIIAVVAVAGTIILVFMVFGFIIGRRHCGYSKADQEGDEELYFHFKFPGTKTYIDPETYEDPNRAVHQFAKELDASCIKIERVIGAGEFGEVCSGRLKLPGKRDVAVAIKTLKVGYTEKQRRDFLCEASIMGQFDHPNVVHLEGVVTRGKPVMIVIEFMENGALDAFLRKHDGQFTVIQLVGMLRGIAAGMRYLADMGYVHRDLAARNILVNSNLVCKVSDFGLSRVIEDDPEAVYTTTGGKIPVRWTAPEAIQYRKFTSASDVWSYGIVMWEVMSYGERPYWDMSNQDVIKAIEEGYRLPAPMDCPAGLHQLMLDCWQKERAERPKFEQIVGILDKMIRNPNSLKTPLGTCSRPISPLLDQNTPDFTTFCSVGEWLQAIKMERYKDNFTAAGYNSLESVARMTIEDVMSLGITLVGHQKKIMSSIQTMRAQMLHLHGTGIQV
# Chain of MAP3K10 (human) (Q02779 whole entry, looked up): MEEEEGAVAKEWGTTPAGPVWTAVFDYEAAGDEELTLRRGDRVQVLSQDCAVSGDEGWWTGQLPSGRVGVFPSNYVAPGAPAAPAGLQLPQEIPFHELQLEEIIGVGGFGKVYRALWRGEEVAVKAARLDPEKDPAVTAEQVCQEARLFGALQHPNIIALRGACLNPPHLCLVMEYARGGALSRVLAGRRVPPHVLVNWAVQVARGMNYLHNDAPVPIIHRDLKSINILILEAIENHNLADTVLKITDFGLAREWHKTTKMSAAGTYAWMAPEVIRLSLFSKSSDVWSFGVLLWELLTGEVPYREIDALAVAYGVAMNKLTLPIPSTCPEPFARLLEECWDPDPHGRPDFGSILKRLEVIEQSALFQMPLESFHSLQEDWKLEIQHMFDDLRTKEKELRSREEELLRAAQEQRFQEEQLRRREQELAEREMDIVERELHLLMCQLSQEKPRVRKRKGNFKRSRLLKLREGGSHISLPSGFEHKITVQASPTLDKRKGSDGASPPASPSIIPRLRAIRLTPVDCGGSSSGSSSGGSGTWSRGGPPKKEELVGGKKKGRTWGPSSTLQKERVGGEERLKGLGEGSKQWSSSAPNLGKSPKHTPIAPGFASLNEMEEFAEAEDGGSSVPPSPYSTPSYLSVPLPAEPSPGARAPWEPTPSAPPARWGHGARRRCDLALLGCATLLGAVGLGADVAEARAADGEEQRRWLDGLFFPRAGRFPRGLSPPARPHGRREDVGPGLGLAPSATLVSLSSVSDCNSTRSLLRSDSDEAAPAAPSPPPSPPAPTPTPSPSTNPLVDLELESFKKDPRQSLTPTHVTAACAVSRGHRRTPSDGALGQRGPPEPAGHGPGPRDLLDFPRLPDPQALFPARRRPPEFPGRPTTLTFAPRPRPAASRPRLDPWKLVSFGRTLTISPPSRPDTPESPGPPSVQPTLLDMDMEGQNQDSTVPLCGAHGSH
# Chain of FRK (human) (P42685 whole entry, looked up): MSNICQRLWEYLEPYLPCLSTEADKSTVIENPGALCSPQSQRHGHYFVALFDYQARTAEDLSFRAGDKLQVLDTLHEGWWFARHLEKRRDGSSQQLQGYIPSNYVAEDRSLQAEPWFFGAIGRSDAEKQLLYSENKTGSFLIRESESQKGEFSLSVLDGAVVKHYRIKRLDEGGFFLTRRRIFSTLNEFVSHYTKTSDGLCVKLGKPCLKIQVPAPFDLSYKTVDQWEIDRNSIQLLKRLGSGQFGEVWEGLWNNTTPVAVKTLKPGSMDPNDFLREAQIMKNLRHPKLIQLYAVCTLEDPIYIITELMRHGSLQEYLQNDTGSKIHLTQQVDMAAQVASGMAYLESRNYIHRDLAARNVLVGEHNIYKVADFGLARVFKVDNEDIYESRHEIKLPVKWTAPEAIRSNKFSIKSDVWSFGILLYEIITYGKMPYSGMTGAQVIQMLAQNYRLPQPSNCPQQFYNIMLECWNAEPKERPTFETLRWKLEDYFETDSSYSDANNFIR
# Chain of FES (human) (P07332 whole entry, looked up): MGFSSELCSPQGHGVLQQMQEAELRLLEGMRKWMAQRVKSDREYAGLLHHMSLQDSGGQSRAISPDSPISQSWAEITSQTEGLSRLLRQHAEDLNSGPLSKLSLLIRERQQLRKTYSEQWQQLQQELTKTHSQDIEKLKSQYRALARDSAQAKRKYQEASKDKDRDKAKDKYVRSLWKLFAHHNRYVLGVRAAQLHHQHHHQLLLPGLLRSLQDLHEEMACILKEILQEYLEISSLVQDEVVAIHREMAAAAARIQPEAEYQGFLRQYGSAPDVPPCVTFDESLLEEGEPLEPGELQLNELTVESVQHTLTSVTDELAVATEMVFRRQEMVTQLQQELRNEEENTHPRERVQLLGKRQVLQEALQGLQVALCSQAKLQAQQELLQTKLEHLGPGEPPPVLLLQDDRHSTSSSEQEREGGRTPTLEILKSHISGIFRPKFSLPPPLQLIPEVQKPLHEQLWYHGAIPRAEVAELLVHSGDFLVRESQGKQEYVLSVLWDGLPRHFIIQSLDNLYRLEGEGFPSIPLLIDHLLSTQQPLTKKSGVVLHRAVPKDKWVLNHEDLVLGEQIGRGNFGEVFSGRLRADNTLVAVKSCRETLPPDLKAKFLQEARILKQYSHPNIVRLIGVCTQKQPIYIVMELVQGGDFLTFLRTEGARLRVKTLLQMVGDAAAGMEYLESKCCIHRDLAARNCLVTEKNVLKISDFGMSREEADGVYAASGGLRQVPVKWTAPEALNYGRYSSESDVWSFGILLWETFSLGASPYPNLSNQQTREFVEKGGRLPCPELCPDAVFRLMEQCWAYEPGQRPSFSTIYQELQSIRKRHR
# Chain of EPHB4 (human) (P54760 whole entry, looked up): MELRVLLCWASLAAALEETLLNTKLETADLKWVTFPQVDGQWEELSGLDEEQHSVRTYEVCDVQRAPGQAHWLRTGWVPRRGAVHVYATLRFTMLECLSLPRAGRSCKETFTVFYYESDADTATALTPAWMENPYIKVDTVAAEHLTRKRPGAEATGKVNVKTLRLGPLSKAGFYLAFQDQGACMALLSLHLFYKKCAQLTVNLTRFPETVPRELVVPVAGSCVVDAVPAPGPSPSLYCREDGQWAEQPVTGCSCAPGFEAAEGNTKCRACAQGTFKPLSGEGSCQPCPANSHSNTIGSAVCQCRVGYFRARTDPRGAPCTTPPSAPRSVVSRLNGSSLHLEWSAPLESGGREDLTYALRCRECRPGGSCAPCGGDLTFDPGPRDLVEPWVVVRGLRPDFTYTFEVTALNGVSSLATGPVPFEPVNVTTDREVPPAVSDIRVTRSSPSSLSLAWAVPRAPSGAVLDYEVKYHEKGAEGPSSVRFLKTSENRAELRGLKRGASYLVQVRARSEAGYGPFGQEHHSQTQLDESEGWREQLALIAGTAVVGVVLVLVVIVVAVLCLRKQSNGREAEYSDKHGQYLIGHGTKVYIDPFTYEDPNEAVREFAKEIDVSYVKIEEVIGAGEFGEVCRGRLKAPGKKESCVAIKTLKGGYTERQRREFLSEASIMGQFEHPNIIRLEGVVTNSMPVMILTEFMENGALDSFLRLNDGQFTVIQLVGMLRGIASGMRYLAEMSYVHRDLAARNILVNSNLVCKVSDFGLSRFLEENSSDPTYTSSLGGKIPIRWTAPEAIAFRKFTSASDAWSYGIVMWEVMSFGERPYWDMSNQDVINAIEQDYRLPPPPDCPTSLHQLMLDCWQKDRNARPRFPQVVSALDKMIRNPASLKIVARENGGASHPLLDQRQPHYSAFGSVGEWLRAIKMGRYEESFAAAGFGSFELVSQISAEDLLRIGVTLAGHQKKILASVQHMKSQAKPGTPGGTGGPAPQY
# Chain of TGFBR2 (human) (P37173 whole entry, looked up): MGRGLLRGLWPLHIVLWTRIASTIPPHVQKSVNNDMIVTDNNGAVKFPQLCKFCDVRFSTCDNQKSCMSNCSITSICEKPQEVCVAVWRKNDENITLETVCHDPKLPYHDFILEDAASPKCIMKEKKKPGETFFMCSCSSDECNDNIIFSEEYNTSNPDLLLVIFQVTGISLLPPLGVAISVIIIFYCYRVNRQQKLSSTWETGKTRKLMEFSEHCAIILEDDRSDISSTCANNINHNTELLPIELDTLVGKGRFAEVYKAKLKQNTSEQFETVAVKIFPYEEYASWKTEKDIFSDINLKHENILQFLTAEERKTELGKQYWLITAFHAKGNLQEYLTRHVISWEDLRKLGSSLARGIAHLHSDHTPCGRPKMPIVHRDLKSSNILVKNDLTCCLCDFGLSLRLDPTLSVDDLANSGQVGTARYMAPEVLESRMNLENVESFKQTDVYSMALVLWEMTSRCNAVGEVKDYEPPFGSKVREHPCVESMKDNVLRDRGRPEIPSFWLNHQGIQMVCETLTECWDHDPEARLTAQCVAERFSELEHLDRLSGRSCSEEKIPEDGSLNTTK
smiles,measurement,setting,value
Ic1cccc(CSc2nnc(-c3ccncc3)o2)c1,residual activity,PAK6 (human),74%
same,residual activity,PBK (human),62.7%
same,residual activity,PDGFRB (human),97.7%
same,residual activity,PRKCI (human),96.4%
same,residual activity,IKBKE (human),102%
same,residual activity,PNCK (human),101%
same,residual activity,MAPK3 (human),95.8%
same,residual activity,PLK1 (human),98.6%
same,residual activity,MAP3K9 (human),108%
same,residual activity,EPHB3 (human),99.7%
same,residual activity,PIM2 (human),102%
same,residual activity,AKT2 (human),101%
same,residual activity,MAPK9 (human),108%
same,residual activity,ULK2 (human),111%
same,residual activity,MAP4K2 (human),112%
same,residual activity,MINK1 (human),90.2%
same,residual activity,RET (human),103%
same,residual activity,HIPK2 (human),102%
same,residual activity,CHEK1 (human),96.3%
same,residual activity,MAP3K5 (human),91.7%
same,residual activity,MLTK (human),96.7%
same,residual activity,FRK (human),85.5%
same,residual activity,TSSK2 (human),110%
same,residual activity,HIPK1 (human),105%
same,residual activity,EPHA3 (human),111%
same,residual activity,RPS6KA2 KD1 KD2 (human),101%
same,residual activity,TGFBR2 (human),121%
same,residual activity,MAP3K10 (human),102%
same,residual activity,FGFR3 (human),106%
same,residual activity,CSNK1G2 (human),99.2%
same,residual activity,TXK (human),96.8%
same,residual activity,EPHB4 (human),101%
same,residual activity,PIM1 (human),102%
same,residual activity,SYK (human),92.2%
same,residual activity,FES (human),98%
same,residual activity,FLT1 (human),91%
same,residual activity,PRKCA (human),123%
same,residual activity,MAPK8 (human),84.7%
same,residual activity,MAPK1 (human),107%
same,residual activity,EPHA7 (human),100%
same,residual activity,AKT1 (human),98.6%
same,residual activity,PAK7 (human),99.3%
COc1ccc(S(=O)(=O)N(CCO)c2ccccc2CN(C)C/C=C/c2ccc(Cl)cc2)cc1,residual activity,PAK6 (human),101%
same,residual activity,PBK (human),95.3%
same,residual activity,PDGFRB (human),104%
same,residual activity,PRKCI (human),97.5%
same,residual activity,IKBKE (human),93.7%
same,residual activity,PNCK (human),99.8%
same,residual activity,MAPK3 (human),95.1%
same,residual activity,PLK1 (human),98.8%
same,residual activity,MAP3K9 (human),102%
same,residual activity,EPHB3 (human),92.8%
same,residual activity,PIM2 (human),99.7%
same,residual activity,AKT2 (human),106%
same,residual activity,MAPK9 (human),85.5%
same,residual activity,ULK2 (human),102%
same,residual activity,MAP4K2 (human),92.6%
same,residual activity,MINK1 (human),98.1%
same,residual activity,RET (human),103%
same,residual activity,HIPK2 (human),107%
same,residual activity,CHEK1 (human),93.5%
same,residual activity,MAP3K5 (human),93.7%
same,residual activity,MLTK (human),97%
same,residual activity,FRK (human),106%
same,residual activity,TSSK2 (human),107%
same,residual activity,HIPK1 (human),106%
same,residual activity,EPHA3 (human),102%
same,residual activity,RPS6KA2 KD1 KD2 (human),99.2%
same,residual activity,TGFBR2 (human),97.2%
same,residual activity,MAP3K10 (human),92.4%
same,residual activity,FGFR3 (human),70.1%
same,residual activity,CSNK1G2 (human),103%
same,residual activity,TXK (human),95.6%
same,residual activity,EPHB4 (human),104%
same,residual activity,PIM1 (human),104%
same,residual activity,SYK (human),101%
same,residual activity,FES (human),96.3%
same,residual activity,FLT1 (human),94.7%
same,residual activity,PRKCA (human),98.2%
same,residual activity,MAPK8 (human),104%
same,residual activity,MAPK1 (human),97%
same,residual activity,EPHA7 (human),98.9%
same,residual activity,AKT1 (human),106%
same,residual activity,PAK7 (human),107%
COc1cc2ncnc(Nc3ccc(OCc4ccccc4)cc3)c2cc1OC,residual activity,PAK6 (human),95.4%
same,residual activity,PBK (human),109%
same,residual activity,PDGFRB (human),93%
same,residual activity,PRKCI (human),101%
same,residual activity,IKBKE (human),99.7%
same,residual activity,PNCK (human),99%
same,residual activity,MAPK3 (human),98.4%
same,residual activity,PLK1 (human),101%
same,residual activity,MAP3K9 (human),96.5%
same,residual activity,EPHB3 (human),90%
same,residual activity,PIM2 (human),97.6%
same,residual activity,AKT2 (human),101%
same,residual activity,MAPK9 (human),106%
same,residual activity,ULK2 (human),97%
same,residual activity,MAP4K2 (human),114%
same,residual activity,MINK1 (human),94.3%
same,residual activity,RET (human),89.1%
same,residual activity,HIPK2 (human),111%
same,residual activity,CHEK1 (human),101%
same,residual activity,MAP3K5 (human),97.8%
same,residual activity,MLTK (human),96.2%
same,residual activity,FRK (human),104%
same,residual activity,TSSK2 (human),104%
same,residual activity,HIPK1 (human),104%
same,residual activity,EPHA3 (human),98.1%
same,residual activity,RPS6KA2 KD1 KD2 (human),100%
same,residual activity,TGFBR2 (human),121%
same,residual activity,MAP3K10 (human),94.9%
same,residual activity,FGFR3 (human),102%
same,residual activity,CSNK1G2 (human),98.4%
same,residual activity,TXK (human),99.4%
same,residual activity,EPHB4 (human),94.6%
same,residual activity,PIM1 (human),102%
same,residual activity,SYK (human),93.1%
same,residual activity,FES (human),97%
same,residual activity,FLT1 (human),96%
same,residual activity,PRKCA (human),93.9%
same,residual activity,MAPK8 (human),102%
same,residual activity,MAPK1 (human),100%
same,residual activity,EPHA7 (human),97%
same,residual activity,AKT1 (human),103%
same,residual activity,PAK7 (human),99.6%
O=C1NC(=O)c2c1c1c3ccccc3[nH]c1n1cncc21,residual activity,PAK6 (human),85.5%
same,residual activity,PBK (human),72.4%
same,residual activity,PDGFRB (human),68.4%
same,residual activity,PRKCI (human),82.3%
same,residual activity,IKBKE (human),103%
same,residual activity,PNCK (human),105%
same,residual activity,MAPK3 (human),87.8%
same,residual activity,PLK1 (human),50.8%
same,residual activity,MAP3K9 (human),72.5%
same,residual activity,EPHB3 (human),79.7%
same,residual activity,PIM2 (human),34.4%
same,residual activity,AKT2 (human),121%
same,residual activity,MAPK9 (human),65.3%
same,residual activity,ULK2 (human),95.5%
same,residual activity,MAP4K2 (human),51.8%
same,residual activity,MINK1 (human),48.2%
same,residual activity,RET (human),42%
same,residual activity,HIPK2 (human),94.4%
same,residual activity,CHEK1 (human),24.6%
same,residual activity,MAP3K5 (human),97.8%
same,residual activity,MLTK (human),78.7%
same,residual activity,FRK (human),96.8%
same,residual activity,TSSK2 (human),99.1%
same,residual activity,HIPK1 (human),82.6%
same,residual activity,EPHA3 (human),105%
same,residual activity,RPS6KA2 KD1 KD2 (human),32.7%
same,residual activity,TGFBR2 (human),95.8%
same,residual activity,MAP3K10 (human),82.5%
same,residual activity,FGFR3 (human),85%
same,residual activity,CSNK1G2 (human),63.4%
same,residual activity,TXK (human),76.4%
same,residual activity,EPHB4 (human),105%
same,residual activity,PIM1 (human),1.43%
same,residual activity,SYK (human),84.9%
same,residual activity,FES (human),117%
same,residual activity,FLT1 (human),58%
same,residual activity,PRKCA (human),66.5%
same,residual activity,MAPK8 (human),83.9%
same,residual activity,MAPK1 (human),125%
same,residual activity,EPHA7 (human),78.8%
same,residual activity,AKT1 (human),102%
same,residual activity,PAK7 (human),80%

# Reference: the kinase profiling compilation of Christmann-Franck et al. (2016)
